The text below walks through data of PubChem BioAssay (NCI).

Common to all, as to assay: NCI tumour cell line growth inhibition, 48 h
Assay [1] has as its system CAKI-1 renal.
The subject of assay [2] is OVCAR-4 ovarian.
Assay [3] relates to SF-268 CNS.
Assay [4] concerns SK-MEL-5 melanoma.
Assay [5] deals with U251 CNS.
In assay [6] the test system is OVCAR-8 ovarian.
Assay [7] deals with M14 melanoma.
Assay [8] has as its system SK-MEL-28 melanoma.
The subject of assay [9] is RPMI-8226 leukemia.
The subject of assay [10] is SF-539 CNS.
The subject of assay [11] is EKVX NSCLC.
For assay [12], the system named is A498 renal.
The subject of assay [13] is OVCAR-5 ovarian.
Assay [14] deals with HS 578T breast.

Values joined by “and” are separate entries in the source; they are usually repeats but may differ in a detail not shown here. Equal entries are not always repeated.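 Grown in 96-well plates, cells were treated for 48 hours with each compound at five concentrations. Insufficient inhibition: endpoint recorded as highest concentration tested. GI50 = concentration required for 50% inhibition of growth. TGI: total growth inhibition.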 Where a SMILES comes first, the peptide text is derived from it. Bridges are numbered along the chain shown (N, C = ends). The star is where a group is joined. Cbz = O=C(OCc1ccccc1)*

Consider `N#Cc1c(Nc2nc3ccccc3s2)c2ccccc2n2c1nc1ccccc12`, for which the TGI in assay [1], in assay [2], in assay [3], in [4], in [5] and in assay [6] was over 100 µM throughout. The TGI in assay [7], in assay [8], in assay [9], in assay [10], in [11] and in assay [12] was over 100 µM each time. Moreover, the TGI in [13] and in assay [14] was over 100 µM each time.

On to `CCOC(=O)C(NC(=O)CC)(Nc1ccc(S(=O)(=O)Nc2nc(C)cc(C)n2)cc1)C(F)(F)F` (stereo not given), for which the TGI in assay [1], in assay [2], in assay [3], in [4], in assay [5] and in [6] was over 100 µM throughout. Further, the TGI in assay [7], in [8], in [9], in assay [10], in assay [11] and in assay [12] was over 100 µM each time. Besides, the TGI in assay [13] and in [14] was over 100 µM throughout.

With `CCOC(=O)c1c(N2CCOCC2)[nH]c(=O)c(C(c2cccs2)c2c(O)c(C(=O)OCC)c(N3CCOCC3)[nH]c2=O)c1O`, the TGI in assay [1], in assay [2], in [3], in assay [4], in assay [5] and in [6] was over 100 µM each time. Moreover, the TGI in assay [7], in [8], in [9], in assay [10], in assay [11] and in assay [12] was over 100 µM in each case. The TGI in assay [13] and in assay [14] was over 100 µM in each case.

With `C=C(Br)CNCC(=C)Br`, the TGI in [1], in assay [2], in assay [3], in assay [4], in [5] and in [6] was over 100 µM in each case. The TGI in assay [7], in assay [8], in [9], in assay [10], in [11] and in assay [12] was over 100 µM each time. Also, the TGI in assay [13] and in assay [14] was over 100 µM in each case.

Consider `COC(=O)C1CCCCNC(=O)CCC(NC(=O)OCc2ccccc2)C(=O)N1` (stereo not drawn) (Cbz-Glu-Lys-OMe; lactam 1-2; configuration not given here), for which the TGI in [1], in [2], in [3], in assay [4], in [5] and in assay [6] was over 100 µM each time. The TGI in assay [7], in assay [8], in [9], in assay [10], in assay [11] and in [12] was over 100 µM throughout. The TGI in [13] and in [14] was over 100 µM each time.

As to `COc1nc(OC)nc(-c2cccc(F)c2)n1`, the TGI in assay [1] came to 11.4 µM; in assay [2], 39.6 µM; in assay [3], 32 µM; in assay [4] it was 29.8 µM; in assay [5], 31 µM; in assay [6] it was 69.2 µM. The TGI came out at 36.4 µM in assay [7]; 39.6 µM in assay [8]; 45.3 µM in [9]; 32.5 µM in [10]; 18.6 µM in assay [11]; 34.1 µM in assay [12]. Also, the TGI amounted to 28.5 µM in [13] and 93.5 µM in assay [14].

On to `Nc1ccc(-c2nc3ccc(F)cc3s2)cc1`, for which the TGI in [1] was 95.5 µM; in [2], over 100 µM; in assay [3] it was over 100 µM; in assay [4], 37.8 µM; in assay [5] it was over 100 µM; in assay [6], over 100 µM. For the same molecule, the TGI in [7] was over 100 µM; in assay [8], over 100 µM; in assay [9], 91.7 µM; in assay [10], over 100 µM; in assay [11] it was over 100 µM; in assay [12], 80.3 µM. In addition, the values for the TGI in assay [13] and in assay [14] were 73.6 µM and over 100 µM, respectively. The GI50 was 23.1 µM in assay [2] and 27.2 µM in assay [13].

Consider `Cc1ccnc(NC(=S)Nc2cccc(Cl)c2)c1`, for which the TGI in assay [1], in [2], in assay [3], in assay [4], in [5] and in assay [6] was over 100 µM throughout. In addition, the TGI in assay [7], in assay [8], in assay [9], in [10], in assay [11] and in assay [12] was over 100 µM throughout. The TGI in [13] and in [14] was over 100 µM in each case.

For the molecule `O=[N+]([O-])c1ccc2c(Nc3ccccc3-c3ccccc3Nc3c4ccccc4nc4cc([N+](=O)[O-])ccc34)c3ccccc3nc2c1`, the TGI in [1] is 50.6 µM; in assay [2], 57.2 µM; in assay [3], 49.8 µM; in assay [4], 8.09 µM; in [5], 22.9 µM; in [6], 39.9 µM. The TGI in [7] was 18.4 µM; in [8], 59.1 µM; in assay [9], over 39.9 µM; in assay [10], 39.5 µM; in assay [11], 43 µM; in [12], 52.3 µM. Moreover, the TGI is 56.8 µM in assay [13] and 14.9 µM in [14].

Consider `Cc1cc(O)ccc1C1(c2ccc(F)cc2)OC(=O)c2ccccc21` (stereo not given), for which the TGI in assay [1] was 15.3 µM; in [2], 1.08 µM; in [3], 39.7 µM; in assay [4] it was 24.3 µM; in assay [5], over 49.9 µM; in [6] it was 2.05 µM. Moreover, the TGI in assay [7] is 27.1 µM; in assay [8], 25.8 µM; in [9], over 62.1 µM; in assay [10] it was 9.29 µM; in assay [11], 12.6 µM; in [12], 32.9 µM. The results for the TGI in assay [13] and in assay [14] were 20.1 µM and 2.41 µM, respectively.

For `Cc1ccc(OCC2OC(n3cnc4c(Cl)ncnc43)CC2Oc2ccc(C)cc2)cc1` (stereo not given), the TGI in assay [1] is 4.18 µM and 5.78 µM; in assay [2] it was 13.1 µM and > 56.6 µM; in [3], 21.8 µM and 26.9 µM; in assay [4], 30.5 µM and 34.9 µM; in assay [5], 11 µM and > 50.4 µM; in [6], 24.6 µM and 24.2 µM. Further, the TGI in assay [7] is 6.61 µM and 22.6 µM; in [8], 14.9 µM; in assay [9], > 25 µM and 22.5 µM; in [10], 50.6 µM and 36.1 µM; in assay [11], 7.18 µM and 10.2 µM; in assay [12] it was over 70.8 µM. Moreover, the TGI is 68.5 µM and > 79.7 µM in assay [13]; > 59.2 µM and 27.5 µM in assay [14]. Further, the GI50 in assay [2] was 2.57 µM and 10.6 µM; in assay [7], 2.75 µM and 7.3 µM; in assay [9], 3.03 µM; in assay [12], 20.4 µM and > 44.5 µM.

Regarding `Cn1c2c(c3ccccc31)CCN1C(=O)C3SC21C1C(=O)N(c2ccccc2)C(=O)C31` (stereo not given), the TGI is over 100 µM in [1]; over 100 µM in assay [2]; over 100 µM in assay [3]; over 73.4 µM in assay [4]; over 100 µM in assay [5]; over 100 µM in assay [6]. Also, the TGI is over 100 µM in [7]; over 100 µM in assay [8]; over 100 µM in assay [9]; over 100 µM in assay [10]; over 100 µM in assay [11]; over 89.7 µM in assay [12]. Besides, the TGI in assay [13] and in assay [14] was over 100 µM each time.

For `O=C(/C=C(\O)c1ccccc1)/C(=C/C(=O)c1ccccc1)NN=C(c1ccccc1)c1ccccc1`, the TGI is over 100 µM in [1]; over 100 µM in [2]; over 100 µM in assay [3]; 43 µM in assay [4]; over 100 µM in assay [5]; over 100 µM in assay [6]. The TGI in assay [7] was 72.6 µM; in assay [8], over 100 µM; in [9], over 100 µM; in [10] it was over 100 µM; in assay [11], over 100 µM; in [12] it was over 100 µM. Besides, the TGI in assay [13] and in [14] was over 100 µM throughout.

On to `CCn1c2ccc(O)c(C(=O)OC)c2c2cc3ccccc3c(O)c21`, for which the TGI in assay [1] is 33.6 µM; in assay [2], 75.1 µM; in assay [3], 63.6 µM; in assay [4], 38.5 µM; in assay [5] it was 69.2 µM; in assay [6], 56.9 µM. In addition, the TGI turned out to be 47.5 µM in assay [7]; 87.4 µM in [8]; 33.3 µM in assay [9]; 49.2 µM in assay [10]; 67.4 µM in assay [11]; 39.5 µM in [12]. Moreover, the TGI in assay [13] was 73.3 µM; in [14] it was 45.2 µM.

`O=S(=O)(O)c1cc(O)c2c(O)c(N=Nc3cccc4ccccc34)c(S(=O)(=O)O)cc2c1`: the TGI in assay [1], in [2], in assay [3], in assay [4], in [5] and in [6] was over 100 µM each time. The TGI in assay [7], in [8], in assay [9], in [10], in assay [11] and in assay [12] was over 100 µM throughout. Moreover, the TGI in [13] and in [14] was over 100 µM each time.

For the molecule `Oc1nc(N/N=C/c2ccccc2)[nH]c1/C=C1\C=Nc2ccccc21`, the TGI is over 100 µM in [1]; over 100 µM in assay [2]; over 100 µM in [3]; over 100 µM in assay [4]; 51.3 µM in assay [5]; over 100 µM in [6]. The TGI in [7], in [8], in assay [9], in [10], in assay [11] and in assay [12] was over 100 µM each time. Besides, the TGI in assay [13] and in assay [14] was over 100 µM throughout.
